Experimental data from patent US20140315876A1, “BETA-LACTAMASE INHIBITORS” (priority 2013, published 2014).
Where a name gives a salt, the structure may show the parent alone.

Key:
[1] = tested on: bacterial strains that express the class D cephalosporinase OXA-15; experiment: Synergy MIC / standard BLI potentiation MIC assay, strains expressing OXA-15; type: cell-based, E. coli; conditions: in the presence of a β-lactam; comparator Avibactam (comparator compound CCC)
Description: (§1) The experimental protocol was performed according to Clinical and Laboratory Standards Institute (CLSI) guidelines with modifications as described below (CLSI guidelines can be derived from the CLSI document M07-A9 published in January 2012: “Methods for Dilution Antimicrobial Susceptibility Tests for Bacteria That Grow Aerobically; Approved Standard-Ninth Edition”).
(§2) To prepare for MIC testing, frozen glycerol stocks of clinical isolates (Klebsiella pneumoniae, Eschericia coli, Enterobacter spp, Citrobacter spp, or Pseudomonas aeruginosa) were used to streak for isolated colonies on rich, non-selective, tryptic soy agar containing 5% sheep's blood (TSAB). Frozen glycerol stocks of laboratory engineered, isogenic E. coli strains, which contain cloned β-lactamase expressing plasmids were used to streak for isolated colonies on rich, selective LB agar supplemented with 25 μg/mL tetracycline to maintain the plasmid. All strains were incubated at 37° C. for 18-24 hrs.
(§3) On the day of testing, primary cultures were started by scraping off 5-10 colonies from the TSAB plates containing clinical strains or the tetracycline supplemented LB plates containing engineered strains. The clinical strain material was suspended in ˜5 mL of cation adjusted Mueller Hinton Broth (CAMHB) in 14 mL culture tubes. The engineered strain material was suspended in CAMHB (supplemented with 25 μg/mL tetracycline) in 14 mL culture tubes. All strains were incubated at 37° C. with aeration (200 rpm) for ˜2 hrs until the optical density at 600 nm (OD600) was ≧0.1.
(§4) The two compound components of the assay were each diluted in CAMHB and added to the 96-well broth microdilution assay plates. 50 μL of the β-lactam was added to each well of the assay plate in 2-fold dilutions with final concentrations ranging from 128 to 0.13 μg/mL. 25 μL of the BLI compound was added to all wells in the broth microdilution plates at a final concentration of 4 μg/mL. Inoculum cultures were prepared by standardizing the primary cultures to OD600=0.1 and then adding 20 μL of the adjusted primary culture per 1 mL CAMHB for clinical strains or CAMHB (supplemented with tetracycline at 100 μg/mL) for engineered strains, so that the final inoculum density was ˜10^5 colony forming units per milliliter. Diluted inoculum cultures were used to inoculate 25 μL per well in 96-well broth microdilution assay plates. The final volume of each well was 100 μL and contained a β-lactam at different concentrations, a BLI compound at 4 μg/mL concentration, the bacterial culture at an OD600 of approximately 0.001 and when necessary tetracycline at 25 μg/mL.
(§5) Plates were incubated for 18-20 hours at 37° C. with aeration (200 rpm). Following incubation, growth was confirmed visually placing plates over a viewing apparatus (stand with a mirror underneath) and then OD600 was measured using a SpectraMax 340PC384 plate reader (Molecular Devices, Sunnyvale, Calif.). Growth was defined as turbidity that could be detected with the naked eye or achieving minimum OD600 of 0.1. MIC values were defined as the lowest concentration producing no visible turbidity.
(§6) The synergy MIC (sMIC) assay determines the concentration of the BLI required to potentiate the activity of a fixed concentration of a β-lactam antibiotic against β-lactamase producing bacterial strains. The experimental protocol was performed according to Clinical and Laboratory Standards Institute (CLSI) guidelines with modifications as described below (CLSI guidelines can be derived from the CLSI document M07-A9 published in January 2012: “Methods for Dilution Antimicrobial Susceptibility Tests for Bacteria That Grow Aerobically; Approved Standard-Ninth Edition”). […]

[2] = tested on: bacterial strains that express KPC β-lactamases; experiment: Synergy MIC / standard BLI potentiation MIC assay, strains expressing KPC β-lactamases; type: cell-based; conditions: more active for at least one KPC strain and/or better spectrum of activity than Avibactam; in the presence of a β-lactam
Description: as §1, §2, §3, §4, §5, §6

With `O=C1N2C[C@@H](CC[C@H]2c2nnc(CCN3CCNCC3)o2)N1OS(=O)(=O)O` [Compound 776, (2S,5R)-7-oxo-2-(5-(2-(piperazin-1-yl)ethyl)-1,3,4-oxadiazol-2-yl)-1,6-diazabicyclo[3.2.1]octan-6-yl hydrogen sulfate] the “activity against bacterial strains that express the class D cephalosporinase OXA-15, compared with Avibactam” value [1] was “more active than Avibactam” and the “activity and/or spectrum of activity against bacterial strains that express KPC β-lactamases, compared with Avibactam” value [2] was “more active than Avibactam”.
In the case of `O=C1N2C[C@@H](CC[C@H]2c2nnc(CN[C@H]3CCNC3)o2)N1OS(=O)(=O)O` [Compound 765, (2S,5R)-7-oxo-2-(5-(((S)-pyrrolidin-3-ylamino)methyl)-1,3,4-oxadiazol-2-yl)-1,6-diazabicyclo[3.2.1]octan-6-yl hydrogen sulfate], the “activity against bacterial strains that express the class D cephalosporinase OXA-15, compared with Avibactam” value [1] is reported as “more active than Avibactam” and the “activity and/or spectrum of activity against bacterial strains that express KPC β-lactamases, compared with Avibactam” value [2] is reported as “more active than Avibactam”.
In the case of `NCCCCc1nnc([C@@H]2CC[C@@H]3CN2C(=O)N3OS(=O)(=O)O)o1` [Compound 735, (2S,5R)-2-(5-(4-aminobutyl)-1,3,4-oxadiazol-2-yl)-7-oxo-1,6-diazabicyclo[3.2.1]octan-6-yl hydrogen sulfate], the “activity against bacterial strains that express the class D cephalosporinase OXA-15, compared with Avibactam” value [1] is reported as “more active than Avibactam” and the “activity and/or spectrum of activity against bacterial strains that express KPC β-lactamases, compared with Avibactam” value [2] is reported as “more active than Avibactam”.
With `N[C@H]1C[C@@H](Cc2nnc([C@@H]3CC[C@@H]4CN3C(=O)N4OS(=O)(=O)O)o2)C1` [Compound 728, (2S,5R)-2-(5-(((1s,3R)-3-aminocyclobutyl)methyl)-1,3,4-oxadiazol-2-yl)-7-oxo-1,6-diazabicyclo[3.2.1]octan-6-yl hydrogen sulfate] the “activity against bacterial strains that express the class D cephalosporinase OXA-15, compared with Avibactam” value [1] was “more active than Avibactam” and the “activity and/or spectrum of activity against bacterial strains that express KPC β-lactamases, compared with Avibactam” value [2] was “more active than Avibactam”.
With `N[C@H]1CC[C@@H](c2nnc([C@@H]3CC[C@@H]4CN3C(=O)N4OS(=O)(=O)O)o2)C1` [Compound 768, (2S,5R)-2-(5-((1R,3S)-3-aminocyclopentyl)-1,3,4-oxadiazol-2-yl)-7-oxo-1,6-diazabicyclo[3.2.1]octan-6-yl hydrogen sulfate] the “activity against bacterial strains that express the class D cephalosporinase OXA-15, compared with Avibactam” value [1] was “more active than Avibactam” and the “activity and/or spectrum of activity against bacterial strains that express KPC β-lactamases, compared with Avibactam” value [2] was “more active than Avibactam”.
In the case of `N=C(N)NCCc1nnc([C@@H]2CC[C@@H]3CN2C(=O)N3OS(=O)(=O)O)s1` [Compound 794, (2S,5R)-2-(5-(2-guanidinoethyl)-1,3,4-thiadiazol-2-yl)-7-oxo-1,6-diazabicyclo[3.2.1]octan-6-yl hydrogen sulfate], the “activity against bacterial strains that express the class D cephalosporinase OXA-15, compared with Avibactam” value [1] is reported as “more active than Avibactam” and the “activity and/or spectrum of activity against bacterial strains that express KPC β-lactamases, compared with Avibactam” value [2] is reported as “more active than Avibactam”.
In the case of `NC1(Cc2nnc([C@@H]3CC[C@@H]4CN3C(=O)N4OS(=O)(=O)O)o2)CC1` [Compound 724, (2S,5R)-2-(5-((1-aminocyclopropyl)methyl)-1,3,4-oxadiazol-2-yl)-7-oxo-1,6-diazabicyclo[3.2.1]octan-6-yl hydrogen sulfate], the “activity against bacterial strains that express the class D cephalosporinase OXA-15, compared with Avibactam” value [1] is reported as “more active than Avibactam” and the “activity and/or spectrum of activity against bacterial strains that express KPC β-lactamases, compared with Avibactam” value [2] is reported as “more active than Avibactam”.
In the case of `N[C@H]1C[C@H](CCc2nnc([C@@H]3CC[C@@H]4CN3C(=O)N4OS(=O)(=O)O)o2)C1` [Compound 753, (2S,5R)-2-(5-(2-((1r,3R)-3-aminocyclobutyl)ethyl)-1,3,4-oxadiazol-2-yl)-7-oxo-1,6-diazabicyclo[3.2.1]octan-6-yl hydrogen sulfate], the “activity against bacterial strains that express the class D cephalosporinase OXA-15, compared with Avibactam” value [1] is reported as “more active than Avibactam” and the “activity and/or spectrum of activity against bacterial strains that express KPC β-lactamases, compared with Avibactam” value [2] is reported as “more active than Avibactam”.
In the case of `O=C1N2C[C@@H](CC[C@H]2c2nnc(C3CCNC3)o2)N1OS(=O)(=O)O` (stereo partly drawn) [Compound 710, (2S,5R)-7-oxo-2-(5-(pyrrolidin-3-yl)-1,3,4-oxadiazol-2-yl)-1,6-diazabicyclo[3.2.1]octan-6-yl hydrogen sulfate], the “activity against bacterial strains that express the class D cephalosporinase OXA-15, compared with Avibactam” value [1] is reported as “more active than Avibactam” and the “activity and/or spectrum of activity against bacterial strains that express KPC β-lactamases, compared with Avibactam” value [2] is reported as “more active than Avibactam”.
For `NCCCc1nnc([C@@H]2CC[C@@H]3CN2C(=O)N3OS(=O)(=O)O)o1` [Compound 720, (2S,5R)-2-(5-(3-aminopropyl)-1,3,4-oxadiazol-2-yl)-7-oxo-1,6-diazabicyclo[3.2.1]octan-6-yl hydrogen sulfate], the “activity against bacterial strains that express the class D cephalosporinase OXA-15, compared with Avibactam” value [1] was “more active than Avibactam” and the “activity and/or spectrum of activity against bacterial strains that express KPC β-lactamases, compared with Avibactam” value [2] was “more active than Avibactam”.
With `O=C1N2C[C@@H](CC[C@H]2c2nnc(CCNC3CCNCC3)o2)N1OS(=O)(=O)O` [Compound 770, (2S,5R)-7-oxo-2-(5-(2-(piperidin-4-ylamino)ethyl)-1,3,4-oxadiazol-2-yl)-1,6-diazabicyclo[3.2.1]octan-6-yl hydrogen sulfate] the “activity against bacterial strains that express the class D cephalosporinase OXA-15, compared with Avibactam” value [1] was “more active than Avibactam” and the “activity and/or spectrum of activity against bacterial strains that express KPC β-lactamases, compared with Avibactam” value [2] was “more active than Avibactam”.
For `O=C1N2C[C@@H](CC[C@H]2c2nnco2)N1OS(=O)(=O)O` [Compound 701, (2S,5R)-2-(1,3,4-oxadiazol-2-yl)-7-oxo-1,6-diazabicyclo[3.2.1]octan-6-yl hydrogen sulfate], the “activity against bacterial strains that express the class D cephalosporinase OXA-15, compared with Avibactam” value [1] was “more active than Avibactam” and the “activity and/or spectrum of activity against bacterial strains that express KPC β-lactamases, compared with Avibactam” value [2] was “more active than Avibactam”.
`N=C(N)N[C@H]1C[C@@H](c2nnc([C@@H]3CC[C@@H]4CN3C(=O)N4OS(=O)(=O)O)o2)C1` [Compound 749, (2S,5R)-2-(5-((1s,3R)-3-guanidinocyclobutyl)-1,3,4-oxadiazol-2-yl)-7-oxo-1,6-diazabicyclo[3.2.1]octan-6-yl hydrogen sulfate] was tested, and the “activity against bacterial strains that express the class D cephalosporinase OXA-15, compared with Avibactam” value [1] was “more active than Avibactam” and the “activity and/or spectrum of activity against bacterial strains that express KPC β-lactamases, compared with Avibactam” value [2] was “more active than Avibactam”.
For `O=C1N2C[C@@H](CC[C@H]2c2nnc(CCC3CNC3)o2)N1OS(=O)(=O)O` [Compound 742, (2S,5R)-2-(5-(2-(azetidin-3-yl)ethyl)-1,3,4-oxadiazol-2-yl)-7-oxo-1,6-diazabicyclo[3.2.1]octan-6-yl hydrogen sulfate], the “activity against bacterial strains that express the class D cephalosporinase OXA-15, compared with Avibactam” value [1] was “more active than Avibactam” and the “activity and/or spectrum of activity against bacterial strains that express KPC β-lactamases, compared with Avibactam” value [2] was “more active than Avibactam”.
`N=C(N)NC[C@@H](O)c1nnc([C@@H]2CC[C@@H]3CN2C(=O)N3OS(=O)(=O)O)o1` [Compound 731, (2S,5R)-2-(5-((R)-2-guanidino-1-hydroxyethyl)-1,3,4-oxadiazol-2-yl)-7-oxo-1,6-diazabicyclo[3.2.1]octan-6-yl hydrogen sulfate] was tested, and the “activity against bacterial strains that express the class D cephalosporinase OXA-15, compared with Avibactam” value [1] was “more active than Avibactam” and the “activity and/or spectrum of activity against bacterial strains that express KPC β-lactamases, compared with Avibactam” value [2] was “more active than Avibactam”.
In the case of `NC1CCN(CCc2nnc([C@@H]3CC[C@@H]4CN3C(=O)N4OS(=O)(=O)O)o2)CC1` [Compound 775, (2S,5R)-2-(5-(2-(4-aminopiperidin-1-yl)ethyl)-1,3,4-oxadiazol-2-yl)-7-oxo-1,6-diazabicyclo[3.2.1]octan-6-yl hydrogen sulfate], the “activity and/or spectrum of activity against bacterial strains that express KPC β-lactamases, compared with Avibactam” value [2] is reported as “more active than Avibactam”.
